Experimental data taken from patent publication US20210322339A1, “COMBINATION THERAPY OF COENZYME Q10 AND RADIATION FOR TREATMENT OF GLIOMA” (Berg LLC, priority 2019, published 2021).

How the values were obtained:
[1] = system: NHA (normal human astrocytes); test: Human co-culture U251/NHA, flow cytometry of superoxide in non-cancerous cells; assay type: cell-based; details: 0, 230 or 460 μM
Description: (§1) (A) Strategy of human co-culture experiments. In the human cell model, NHA (non-label) and U251 (GFP-labelled) cells are co-cultured in designated cell density. […] (C) Flow cytometric analysis (scatter plot) of GFP and superoxide for U251/NHA cocultures. Cell populations are characterized based by GFP intensity (GFP-negative, GFP-low, and GFP-high). […] (D) Quantification of cell percentages from (C) illustrating the increased number of GFP-low cells with increased dose. (E) Flow cytometric analysis of superoxide and DAPI for NHA-U251/NHA co-cultures treated with 0, 230, or 460 μM Coenzyme Q10.
(§2) We assessed the effects of Coenzyme Q10 on mitochondrial superoxide production in in vitro cocultures of glioma and non-cancerous cells, i.e. rodent C6 glioma, rodent NIH3T3 non-cancerous fibroblast cells, human U251 glioma, and primary human non-cancerous astrocytes.
(§3) In the human cell model, NHA (non-label) and U251 (GFP-labelled) cells were co-cultured at a designated cell density. Phase and fluorescent images of U251/NHA Co-cultures of U251/NHA cells were treated with 0 or 460 μM Coenzyme Q10 and detected by phase and fluorescent imaging. […] See FIG. 2 B. Cells were also analyzed by flow cytometric analysis (scatter plot) of GFP and superoxide for U251/NHA cocultures. […] Quantification of cell percentages illustrated the increased number of GFP-low cells with increased dose.

[2] = system: C6 glioma and NIH3T3 cells; test: Rodent co-culture of C6-GFP glioma and NIH3T3 cells, cell number and Mitosox superoxide by flow cytometry; assay type: cell-based
Experimental: FIGS. 2A-2F show differential induction of mitochondrial superoxide by Coenzyme Q10 in non-cancer vs. neoplastic cells. (A) Strategy of rodent co-culture experiments using glioma and non-tumor cells. The rodent cell co-culture consisted of fibroblastic NIH3T3 and glioma C6-GFP cells. (B) NIH3T3 and C6 cells were initially seeded in 1:1 ratio. After 72 h or 144 h incubation with Coenzyme Q10 (0 μM, […], 115 μM, 230 μM, […] or 460 μM), the number of C6 or NIH3T3 cells in co-culture is generated by flow-cytometry. (C) Images were taken at 72 hrs post-dosing (0 μM, 230 μM or 460 μM) using a Leica CTR5000. […] Percentage of cells harboring positive or negative level of superoxide from C6 (GFP+) or NIH3T3 (GFP−) population are recorded by flow cytometry (D) and presented as table of summary (E). […]
as §2
For the rodent cells, NIH3T3 and C6 cells were initially seeded in a 1:1 ratio. […] Superoxide level was detected by Mitosox staining. The percentage of cells harboring positive or negative levels of superoxide from C6 (GFP+) or NIH3T3 (GFP−) populations were determined by flow cytometry.

[3] = system: C6 cells; test: Implanted luciferase-labeled C6 glioma rat model with radiotherapy, survival; assay type: in vivo, Sprague Dawley rats
Experimental: Methodology: 1×10^6 luciferase labeled C6 cells were implanted into the right striatum of Sprague Dawley rats. 4 days post-implantation, 50 rats were randomized into one of four groups:
(i) Saline injection ip bid; (12 rats)
(ii) Coenzyme Q10 50 mg/kg ip bid to continue up to 35 days; (12 rats)
(iii) 12 Gy radiotherapy (RT) to be administered on Day 8 post-implant with saline injection (12 rats); and
(iv) Coenzyme Q10+RT (14 rats).
Tumor-bearing rats were monitored until death or Day 50.

[4] = system: U251 glioma cells; test: Human co-culture U251/NHA, imaging and flow cytometry of GFP, superoxide and DAPI; assay type: cell-based
Description: as §1, §2
as §3, with “cocultures. Cell populations were characterized based by GFP intensity (GFP-negative, GFP-low, and GFP-high).” for “cocultures.”

[5] = system: high-grade glioma; details: one patient, after 6 weeks in the study
Experimental: The patients in this study were administered a CoQ10-lipid conjugate in which oxidized CoQ10 was incorporated into a mixture of mitochondria compatible lipids, enabling delivery of supraphysiological concentrations of CoQ10 to the mitochondria.
This study was a phase I trial of Coenzyme Q10 to assess for safety and tolerability of Coenzyme Q10 with vitamin K in patients with HGGs that were progressive after a bevacizumab (BEV) containing regimen. […] Therefore, this study used 10 mg vitamin K prophylactically.
Design: Modified toxicity probability interval design (mTPI) enrolling patients sequentially and monitoring through a 28-day DLT period. 1 dose escalation and 2 dose de-escalations allowed.
Key Inclusion Criteria: HGG (GB, Gliosarcoma, AA, AO) sp radiation with TMZ in recurrence after treatment with BEV. Evidence of leptomeningeal spread was allowed. >18 w KPS>60. Normal coagulation labs.
Key Exclusion Criteria: History of spontaneous or tumor related intracerebral hemorrhage. Uncontrolled coagulopathies or use of anti-coagulants.

[6] = system: C6 glioma cells; test: Orthotopic C6 glioma rat model, survival and MRI; assay type: in vivo, Wistar rats; details: long-term survivor, D27, D34, D102
Experimental: 10^6 C6 glioma cells were implanted into the right striatum of Wistar rats. Four days after implantation, animals started to receive saline (n=32) or 50 mg/kg of Coenzyme Q10 (n=21), twice a day, i.p. for 45 days. Surviving animals remained in the study until Day 102 (A) Kaplan-Meier survival curve of rats during 45 days of treatment. Over 25% of rats treated with Coenzyme Q10 survived 45 days, considered long-term survival in this model (p<0.01, log rank test). (B) Serial MRI images of a long-term survivor (D27, D34, D102). […] Far right panel is a coronal section of the long-term survivor.
10^6 C6 glioma cells were implanted into the right striatum of Wistar rats. Four days after implantation, animals started to receive saline (n=32) or 50 mg/kg of Coenzyme Q10 (n=21), twice a day, i.p. for 45 days. Surviving animals remained in the study until Day 102.

[7] = system: recurrent high-grade gliomas; details: patients with recurrent high-grade gliomas; cited from earlier work

Question: Which results are given for `COC1=C(OC)C(=O)C(C/C=C(\C)CC/C=C(\C)CC/C=C(\C)CC/C=C(\C)CC/C=C(\C)CC/C=C(\C)CC/C=C(\C)CC/C=C(\C)CC/C=C(\C)CCC=C(C)C)=C(C)C1=O` [Coenzyme Q10]?
Answer: superoxide values in GFP-negative (NHA) cells [1]: insignificant changes; dosage of peak effect of differences in superoxide levels and cell growth ([2]; C6/NIH3T3 co-culture): 230; induction of mitochondrial superoxide versus non-neoplastic cells ([2]; C6 and U251 cells exposed to Coenzyme Q10): significantly more induction of mitochondrial superoxide than non-neoplastic cells; median survival ([3]; Coenzyme Q10 50 mg/kg ip bid up to 35 days, 12 Gy RT on Day 8, monitored to Day 50, p<0.001): 19 days; Long Term Survivors (%) ([3]; survived for 45 days): 5/12 (42%); DAPI levels ([4]; 0, 230 or 460 μM): only significantly elevated in GFP-low cells; superoxide values in GFP-low and GFP-high cells ([4]; 0, 230 or 460 μM): increase in superoxide values; glioma cell levels by phase and fluorescent imaging ([4]; 460 μM, U251/NHA co-culture): decreased glioma cell levels with a relative sparing of NHA cells; superoxide level of U251 glioma cells compared to human astrocytes upon treatment ([4]; basal difference 1.5-fold): over 4 fold; percentage of GFP-low relative to GFP-high cells ([4]; with increasing dose, flow cytometry): increased percentage of GFP-low relative to GFP-high cells; glucose uptake by FDG-PET in the area of prior surgery [5]: decreased glucose uptake; tumor size over time on serial MRI after treatment was withdrawn [6]: continued shrinkage of the tumor over time

Question: For “Bevacizumab: a monoclonal antibody against vascular endothelial growth factor (VEGF)”, which response rates [7] is on record?
Answer: 32-62%
